The results in this text go back to patent US8404893B2, “Pentafluorosulfanylbenzoylguanidines, processes for their preparation, their use as medicaments or diagnostic aids, and medicaments comprising them” (Sanofi-Aventis Deutschland GmbH, priority 2002, dated 2013).

The structures appear in SMILES notation. pIC50: −log10 of the molar value. Where a name gives a salt, the structure may show the parent alone.

T1 sequence (P19634 whole entry): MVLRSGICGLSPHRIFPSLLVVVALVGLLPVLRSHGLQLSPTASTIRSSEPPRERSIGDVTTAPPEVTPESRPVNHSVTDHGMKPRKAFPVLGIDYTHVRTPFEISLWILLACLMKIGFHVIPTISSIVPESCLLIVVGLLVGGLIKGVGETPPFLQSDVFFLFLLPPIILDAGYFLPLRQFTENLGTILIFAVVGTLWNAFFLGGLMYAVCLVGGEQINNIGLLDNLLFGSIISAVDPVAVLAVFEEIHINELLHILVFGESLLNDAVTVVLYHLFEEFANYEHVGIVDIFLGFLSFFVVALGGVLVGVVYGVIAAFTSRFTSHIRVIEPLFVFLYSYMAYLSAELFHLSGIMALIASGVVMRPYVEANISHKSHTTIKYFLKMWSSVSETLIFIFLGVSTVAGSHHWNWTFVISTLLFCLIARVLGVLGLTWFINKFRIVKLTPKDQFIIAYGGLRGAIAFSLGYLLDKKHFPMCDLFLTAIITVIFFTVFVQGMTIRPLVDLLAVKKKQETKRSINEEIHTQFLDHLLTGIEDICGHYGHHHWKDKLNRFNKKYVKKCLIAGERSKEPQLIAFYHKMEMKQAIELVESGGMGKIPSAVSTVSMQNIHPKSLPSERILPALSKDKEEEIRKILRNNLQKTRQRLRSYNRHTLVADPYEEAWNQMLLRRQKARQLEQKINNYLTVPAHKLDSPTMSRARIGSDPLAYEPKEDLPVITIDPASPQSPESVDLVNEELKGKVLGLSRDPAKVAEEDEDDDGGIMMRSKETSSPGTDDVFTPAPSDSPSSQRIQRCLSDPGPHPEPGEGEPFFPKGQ

This test concerns the target T1, human NHE-1 (Homo sapiens, UniProt P19634).
T1 construct: expressed in transfected cells; host or cells: LAP-1 cells (parental line without endogenous NHE activity), stably transfected, G418 selection
Nature of the test: FLIPR assay for NHE-1 inhibition by measurement of the recovery in pHi in transfected cell lines. Format: cell-based. The note with it: transfected LAP-1 cell line expressing human NHE-1, BCECF fluorescence, read-out: NHE1 inhibition IC50. The procedure:
The NHE-1 inhibition IC50 [nM] was determined as follows:
FLIPR assay for determining NHE-1 inhibitors by measurement of the recovery in pHi in transfected cell lines which express human NHE-1
The assay is carried out in an FLIPR (fluorometric imaging plate reader) with black-walled 96-well microtiter plates with clear bases. […] [The growth medium for the transfected cells (Iscove+10% fetal calf serum) additionally contains G418 as selection antibiotic in order to ensure the presence of the transfected sequences.]
The actual assay starts with the removal of the growth medium and addition of 100 μl of loading buffer per well (5 μM BCECF-AM [2′,7′-bis(carboxyethyl)-5-(and -6-)carboxyfluorescein, acetoxymethyl ester] in 20 mM NH4Cl, 115 mM choline chloride, 1 mM MgCl2, 1 mM CaCl2, 5 mM KCl, 20 mM HEPES, 5 mM glucose; pH 7.4 [adjusted with KOH]). The cells are then incubated at 37° C. for 20 minutes. This incubation leads to loading of the cells with the fluorescent dye whose fluorescence intensity depends on pHi, and with NH4Cl which makes the cells slightly alkaline.
[The nonfluorescent dye precursor BCECF-AM is, as ester, membrane-permeable. The actual dye BCECF is not membrane-permeable but is liberated inside cells by esterases.]
After this incubation for 20 minutes, the loading buffer which contains NH4Cl and free BCECF-AM is removed by washing three times in a cell washer (Tecan Columbus) with in each case 400 μl of washing buffer (133.8 mM choline chloride, 4.7 mM KCl, 1.25 mM MgCl2, 1.25 mM CaCl2, 0.97 mM K2HPO4, 0.23 mM KH2PO4, 5 mM HEPES, 5 mM glucose; pH 7.4 [adjusted with KOH]). The residual volume remaining in the wells is 90 μl (50-125 μl possible). This washing step removes the free BCECF-AM and results, as a consequence of the removal of the external NH4^+ ions, in intracellular acidification (˜pHi 6.3-6.4).
Since the equilibrium of intracellular NH4^+ with NH3 and H^+ is disturbed by the removal of the extracellular NH4^+ and by the subsequent instantaneous passage of the NH3 through the cell membrane, the washing process results in H^+ remaining inside the cells, which is the cause of the intracellular acidification. This may eventually lead to cell death if it persists long enough.
It is important at this point that the washing buffer is sodium-free (<1 mM) because extracellular sodium ions would lead to an instantaneous recovery of the pHi through the activity of the cloned NHE isoforms.
It is likewise important for all the buffers used (loading buffer, washing buffer, recovery buffer) not to contain any HCO3^− ions, because the presence of bicarbonate would lead to activation of interfering bicarbonate-dependent pHi regulatory systems present in the parental LAP-1 cell line.
The microtiter plates with the acidified cells are then (up to 20 minutes after the acidification) transferred to the FLIPR. In the FLIPR, the intracellular fluorescent dye is excited by light with a wavelength of 488 nm generated by an argon laser, and the measured parameters (laser power, illumination time and aperture of the CCD camera incorporated in the FLIPR) are chosen so that the average fluorescence signal per well is between 30 000 and 35 000 relative fluorescence units.
The actual measurement in the FLIPR starts with a photograph being taken by the CCD camera every two seconds under software control. After ten seconds, the recovery of the intracellular pH is initiated by adding 90 μl of recovery buffer (133.8 mM NaCl, 4.7 mM KCl, 1.25 mM MgCl2, 1.25 mM CaCl2, 0.97 mM K2HPO4, 0.23 mM KH2PO4, 10 mM HEPES, 5 mM glucose; pH 7.4 [adjusted with NaOH]) by means of the 96-well pipettor incorporated in the FLIPR.
Positive control wells (100% NHE activity) are those to which pure recovery buffer is added, while negative controls (0% NHE activity) receive washing buffer. Recovery buffer with twice the concentration of test substance is added to all the other wells. Measurement in the FLIPR terminates after 60 measurements (two minutes). […]
For the compound `NC(N)=NC(=O)c1cccc(S(F)(F)(F)(F)F)c1` [Example 1, 3-Pentafluorosulfanylbenzoylguanidine, Hydrochloride], the pIC50 (commonly the IC50 on a negative log10 scale, so that one unit is a factor of ten) was 6.63.

As for `NC(N)=NC(=O)c1ccc(S(F)(F)(F)(F)F)cc1` [Example 2, 4-Pentafluorosulfanylbenzoylguanidine, Hydrochloride], the pIC50 is 6.88.

Consider `Cc1cc(S(F)(F)(F)(F)F)ccc1C(=O)N=C(N)N` [Example 3, 4-Pentafluorosulfanyl-2-methylbenzoylguanidine], for which the pIC50 is 7.84.

`N=C(N)NC(=O)c1ccc(S(F)(F)(F)(F)F)cc1Cl` [Example 4, N-[2-Chloro-4-pentafluorosulfanylbenzoyl]guanidine]: the negative-log IC50 (pIC50) was 6.66.

As to `N=C(N)NC(=O)c1ccc(S(F)(F)(F)(F)F)cc1Oc1ccc(F)cc1` [Example 5, N-[2-(4-Fluorophenoxy)-4-pentafluorosulfanylbenzoyl]guanidine], the pIC50 is 4.92.

On to `Cc1ccc(S(F)(F)(F)(F)F)cc1C(=O)N=C(N)N` [Example 6, N-(2-Methyl-5-pentafluorosulfanylbenzoyl)guanidine], for which the negative-log IC50 (pIC50) is 7.69.
